Several values for one entry are separate records, joined by “and”; a condition that tells them apart may be missing. Equal entries are not always repeated.
What was measured:
[1] = Karl Fischer coulometric titration, residual water content; type: physicochemical
[2] = Laser diffraction particle sizing and size distribution; type: physicochemical
Method: Particle size and size distributions of the particles were determined by laser diffraction with the SALD-7101 (Shimadzu Scientific Instruments, Japan) using conditions previously reported (Li X, Mansour H M., AAPS PharmSciTech. December 2011; 12(4):1420-1430; Meenach S A, et al., Int J Nanomedicine. 2013; 8:275-293; Wu X, et al., Drug design, development and therapy. 2013; 7:59-72; Wu X, et al., Int J Nanomedicine. 2013; 8:1269-1283) for measurement of the mean size and size distribution of SD particles in aqueous suspension. Samples were dispersed in ultrapure water and ultrasonicated for 10 s in water bath ultrasonicator Branson 7500 before measuring particle size. Sample particle dispersion was immediately transferred to particle size measuring cell and kept stirring during measurement in nano particle size analyzer. The low refractive index of 1.50-0.00i was used. Volume-based measurements were obtained. DV10, DV50, and DV90 were used as particle size characterization parameters. The span value was calculated using the equation defined as Span=[(DV90−DV10)/DV50] Equation 1. X-Ray Powder Diffraction (XRPD)

[3] = In vitro aerosol dispersion performance, Next Generation Impactor (NGI); type: physicochemical; conditions: for Emitted Fraction (%) / Emitted dose / Fine Particle Dose / Fine Particle Fraction (%) / GSD / MMAD / Respirable Dose / Respirable Fraction (%): NGI 60 L/min
Method: In accordance with US Pharmacopeia (USP) Chapter <601> specification on aerosols and using conditions similar to previously reported (Meenach S A, et al., AAPS PharmSciTech. 2014; 15(6):1574-1587; Muralidharan P, et al., Molecular Systems Design & Engineering. 2016), the in vitro aerosol dispersion properties of the dry powder particles were determined using the Next Generation Impactor® (NGI®) with a stainless steel induction port (USP throat) attachment (NGI® Model 170), equipped with specialized stainless steel NGI® gravimetric insert cups (MSP Corporation, Shoreview, Md., USA). The NGI® was coupled with a Copley TPK 2000 critical flow controller connected to a Copley HCP5 vacuum pump, and the airflow rate (Q), was measured and adjusted prior to each experiment using a Copley DFM 200 flow meter (Copley Scientific, UK).
The mass of powder deposited on each stage was quantified by a gravimetric method using type A/E glass fiber filters with diameter 55 mm (PALL Corporation, Port Washington, N.Y.) and 75 mm (Advance, Japan). Quali-V clear HPMC size 3 inhalation grade capsules (Qualicaps, North Carolina) filled with about 10 mg of powder were used. Three capsules were used in each experiment. In vitro aerosolization was done in triplicate (n=3) under ambient conditions. The NGI™ was operated at a flow rate of 601 min^1 with an actuation time of 10 s through the inhaler. The glass fiber filter was measured gravimetrically before and after actuation, on each stage, to determine the particle stage deposition. The fine particle dose (FPD), fine particle fraction (FPF), respirable fraction (RF), and emitted dose (ED) were calculated using the following equations:
[formula] [formula] [formula] The mass mean aerodynamic diameter (MMAD) and geometric standard deviation (GSD) of aerosol dispersion profiles were determined using a Mathematica (Wolfram Research Inc., Champaign, Ill.) program ((Meenach S A, et al., AAPS PharmSciTech. 2014; 15(6):1574-1587; Muralidharan P, et al., Molecular Systems Design & Engineering. 2016). The aerosol dispersion performance was tested using three FDA approved inhalers Handihaler®, Aerolizer®, and Neohaler®. In Vitro Cell Dose Response Assay
In accordance with US Pharmacopeia (USP) Chapter <601> specification on aerosols and using conditions similar to previously reported, the in vitro aerosol dispersion properties of the dry powder particles were determined using the Next Generation Impactor® (NGI®) with a stainless steel induction port (USP throat) attachment (NGI® Model 170), equipped with specialized stainless steel NGI® gravimetric insert cups (MSP Corporation, Shoreview, Md., USA). The NGI® was coupled with a Copley TPK 2000 critical flow controller connected to a Copley HCP5 vacuum pump, and the airflow rate (Q), was measured and adjusted prior to each experiment using a Copley DFM 200 flow meter (Copley Scientific, UK).
The mass of powder deposited on each stage was quantified by gravimetric method using type A/E glass fiber filters with diameter 55 mm (PALL Corporation, Port Washington, N.Y.) and 75 mm (Advance, Japan). Quali-V clear HPMC size 3 inhalation grade capsules (Qualicaps, North Carolina) filled with about 10 mg of powder were used. Three capsules were used in each experiment. In vitro aerosolization was done in triplicate (n=3) under ambient conditions. The NGI™ was operated at a flow rate of 601 min^−1 with a delay time of 10 s before actuation of the inhaler, followed by 10 s of airflow through the inhaler. The glass fiber filter was measured gravimetrically before and after actuation, on each stage, to determine the particle stage deposition. The fine particle dose (FPD), fine particle fraction (FPF), respirable fraction (RF), and emitted dose (ED) were calculated using the 3-6 equations:

[4] = test system: Calu-3 lung epithelial cells; experiment: In vitro transepithelial electrical resistance (TEER) analysis; type: cell-based, human; conditions: Calu-3, AIC, 100 μM
Method: The cells were seeded at 500,000 cells/ml in Costar Transwells® (0.4 μm polyester membrane, 12 mm for a 12-well plate) with 0.5 ml of media on the apical side and 1.5 ml of media on the basolateral side. Media was changed every other day from the basolateral and apical side. After 10 days of growth, when the cells reached a TEER value of about 1000 Ω/cm^2 which is an indicator of a confluent monolayer at liquid covered culture (LCC) the media was removed from both sides and 800 μl of media was added to the basolateral side of the Transwells to facilitate air-interface culture (AIC) conditions. The TEER responses of the cells were measured with an Endohom 12 mm Culture Cup (World Precision Instruments, Sarasota, Fla.). […] TEER values were then recorded for up to 7 days after aerosol treatment, as previously reported (Meenach S A, 2014, supra; Meenach S A, et al., April 2016; 48(4):1701-1709).
The cells were seeded at 500,000 cells/ml in Costar Transwells® (0.4 μm polyester membrane, 12 mm for a 12-well plate) with 0.5 ml of media on the apical side and 1.5 ml of media on the basolateral side. […] The TEER responses of the cells were measured with an Endohom 12 mm Culture Cup (World Precision Instruments, Sarasota, Fla.). […] TEER values were then recorded for up to 7 days after aerosol treatment, as previously reported (Meenach et al., 2014, supra; Meenach et al., 2016, supra).

[5] = test system: monocrotaline (MCT) rat model of PH; experiment: In vivo hemodynamic efficacy study in PH induced rats (monocrotaline model); parameters: species or system Sprague Dawley rats; conditions: for Right ventricle systolic pressure (RVSP): individual rats, inhaled dry powder 10 mg/kg for 14 days
Method: In vivo studies were conducted in a monocrotaline (MCT) rat model with the purpose of testing the efficacy of TMP in decreasing PH. A total of 30 male Sprague Dawley rats (280-350 g) were used in this study. Rats were purchased from Charles River Laboratories International Inc. (Wilmington, Mass.). Rats were weighted weekly to monitor their health. PH was induced by injecting 60 mg/kg of MCT via intraperitoneally. The animals were divided into 5 groups (n=5) into the following categories: 1) Naïve (control), 2) Naïve+TMP, 3) MCT (PH induced) 4) MCT+ treated with vehicle (air), 5) MCT+ treated with TMP. Two weeks after MCT administration, the rats started to get the treatment via aerosolization of a dry powder formulation of SD TMP (10 mg/kg) using a Penn Century Dry Powder Insufflator™—Model DP-4M for 14 days. Right ventricle systolic pressure (RVSP) hemodynamics were performed after 2 weeks and 4 weeks after MCT administration by inserting a customized pressure transducer catheter (SPR-513, Millar Instruments, Houston, Tex.), into the right ventricle (RV) via the right jugular vein and right atrium. The transducer was connected to a Millar Transducer Control Unit TC-510 and PL3504 PowerLab 4/35 data acquisition system (ADInstruments, Inc., Colorado Springs, Colo.). At the end of pressure recording, the animals were euthanized.

[6] = laser diffraction, aqueous suspension, volume-based
[7] = Aerolizer, listed as spray dried TMP
[8] = Handihaler, listed as spray dried TMP
[9] = Neohaler, listed as spray dried TMP

Method for A549 pulmonary cell line: (§1) Cell-based assays are often used to determine if test molecules have effects on cell proliferation or show direct cytotoxicity effects that eventually leads to cell death. The effects of TMP formulations were analyzed by measuring the response of lung adenocarcinoma cells at different concentrations of the drug. […] The H348 pulmonary cell line is a human bronchoalveolar epithelial cell line similar to alveolar type II cells and express lung surfactant associated protein A (SP-A) (Acosta M F, et al., Current pharmaceutical design. 2016; 22(17):2522-2531). […]
(§2) As previously reported (Acosta et al., 2014, supra), both cell lines were seeded in 96-well plates at 5000 cells/well and 100 μl/well and allowed to attach for 48 hours. […] At this point, the fluorescence intensity was detected at 544 nm (excitation) and 590 nm (emission) using a Synergy H1 Multi-Mode Reader (BioTek Instruments Inc., Winooski, Vt.).
(§3) Cell-based assays are often used to determine if test molecules have effects on cell proliferation or show direct cytotoxicity effects that eventually leads to cell death. The effects of TMP formulations were analyzed by measuring the response of lung adenocarcinoma cells at different concentrations of the drug. […]
Method for H358 pulmonary cell line: as §1, §2, §3

In the case of `Cc1nc(C)c(C)nc1C` [Raw TMP, tetramethylpyrazine, reference compound], the Residual water content [1] is reported as 0.633 ± 0.251% w/w and the “Effect on cell viability” value (H358 pulmonary cell line) is reported as “decrease”.

For `Cc1nc(C)c(C)nc1C` [SD TMP, tetramethylpyrazine], the “Particle sizing span value” ([2]; (Dv90-Dv10)/Dv50) was 1.684±0.645, the “Particle size distribution (size range)” value ([2]; laser diffraction) was 4-14 μm and the “Particle sizing Dv10” value [2, 6] was 4.186±0.701 μm. For the same compound, the “Particle sizing Dv50” value [2, 6] was 6.156±1.47 μm and 6.156 ± 1.147 μm, the “Particle sizing Dv90” value [2, 6] was 14.552±4.928 μm and the Residual water content [1] was 0.368±0.103 % w/w. For the same compound, the “Emitted Fraction (%)” value ([3]; Aerolizer) was 88%, the “Emitted dose” value ([3]; Aerolizer) was 79.98 mg and the “Fine Particle Dose” value ([3]; Aerolizer) was 1.15 mg. The “Fine Particle Fraction (%)” value ([3]; Aerolizer) was 1.41%, the GSD ([3]; Aerolizer) was 2.88 and the MMAD ([3]; Aerolizer) was 15.23 μm. The “Respirable Dose” value ([3]; Aerolizer) was 8.16 mg, the “Respirable Fraction (%)” value ([3]; Aerolizer) was 14.86 ± 8.0% and the “Emitted Fraction (%)” value [3, 7] was 88.76 ± 7.27%. For the same compound, the “Fine Particle Fraction (%)” value [3, 7] was 1.41 ± 0.57%, the MMAD [3, 7] was 15.23 μm and the “Emitted Fraction (%)” value ([3]; Handihaler) was 100%. The “Emitted dose” value ([3]; Handihaler) was 86.92 mg, the “Fine Particle Dose” value ([3]; Handihaler) was 3.33 mg and the “Fine Particle Fraction (%)” value ([3]; Handihaler) was 3.33%. The GSD ([3]; Handihaler) was 5.28, the MMAD ([3]; Handihaler) was 68.4 μm and the “Respirable Dose” value ([3]; Handihaler) was 37.24 mg. For the same compound, the “Respirable Fraction (%)” value ([3]; Handihaler) was 8.9 ± 3.87%, the “Emitted Fraction (%)” value [3, 8] was 100 ± 2.03% and the “Fine Particle Fraction (%)” value [3, 8] was 3.83 ± 0.42%. The MMAD [3, 8] was 68.4 μm, the “Emitted Fraction (%)” value ([3]; Neohaler) was 88% and the “Emitted dose” value ([3]; Neohaler) was 79.28 mg. The “Fine Particle Dose” value ([3]; Neohaler) was 3.48 mg, the “Fine Particle Fraction (%)” value ([3]; Neohaler) was 4.36% and the MMAD ([3]; Neohaler) was 43.73 μm. The “Respirable Dose” value ([3]; Neohaler) was 25.19 mg, the “Respirable Fraction (%)” value ([3]; Neohaler) was 14.87 ± 7.30% and the “Emitted Fraction (%)” value [3, 9] was 88.41 ± 6.70%. The “Fine Particle Fraction (%)” value [3, 9] was 4.36 ± 0.65%, the MMAD [3, 9] was 43.73 μm and the “Particles deposited on the first NGI stage” value ([3]; in vitro aerosol stage deposition) was “above 90%”. For the same compound, the “TEER (electrical resistance)” value ([4]; 3 hours after treatment) was “decreases drastically”, the “TEER (electrical resistance)” value ([4]; seven days of culturing after treatment) was “resistance was regained” and the “Right ventricle systolic pressure (RVSP)” value ([5]; Group 2 (Naive + TMP)) was 20-25 mmHg and ~25 mmHg and 23.8990 mmHg and 24.7030 mmHg and 26.0550 mmHg and 19.6940 mmHg and 20.8110 mmHg and 24.2410 mmHg. The “Right ventricle systolic pressure (RVSP)” value ([5]; Group 5 (MCT + TMP), 4 weeks after MCT) was 58.6830 mmHg and 62.4200 mmHg and 43.3890 mmHg and 59.8200 mmHg and 78.2010 mmHg and 70.5310 mmHg, the Body weight ([5]; Group 5 (MCT + TMP), measured weekly) was “significant loss of weight” and the “Decrease of RVSP relative to group 3 (MCT, 4 weeks)” value ([5]; Group 5, after two weeks of aerosol treatment) was 20-30 mmHg. The “Effect on cell viability” value (A549 pulmonary cell line) was “didn't affect the cell viability”, the “Amount of drug found not to be toxic to pulmonary cell lines” value (A549 pulmonary cell line; human, 72 h) was “up to 7 mg” and the “Effect on cell viability” value (H358 pulmonary cell line) was “didn't affect the cell viability”.

Reference: patent US11667612B2, “Compositions and methods for delivering pharmaceutical agents” (Arizona Board of Regents on Behalf of the University of …, priority 2017, dated 2023)
